{
  "source": "patent US20100310514A1",
  "about": "“Anti-Inflammatory Bacteria” (priority 2009, published 2010)",
  "key": {"[1]": {"system": "dextran sodium sulfate-induced ulcerative colitis", "assay": "DSS-induced ulcerative colitis, oral bacteria given during 7 days of DSS", "format": "in vivo, Balb/c mice", "conditions": "600 mg/kg orally once daily", "protocol": "Male Balb/c mice 6-8 weeks old were used in the following experiments. They were allowed free access to standard laboratory chow and tap water. All animals were housed in an air-conditioned room with controlled temperature (22° C.±1° C.), humidity (65%-70%), and day/night cycle (12:12-hr light: dark). Mice were induced with acute colitis by giving 3% dextran sulfate sodium (DSS, molecular weight, 35-50 kDa) prepared in drinking water for 7 days (from Day 0 to Day 7). Normal control mice received tap water throughout the experiment. […] In a different group of transformed NZ3900, 0.25 ng/ml nisin was added and further incubated for 3 h. Bacteria were then harvested by centrifugation (5000 rpm, 15 min) and washed twice with sterilized PBS (pH 7.4) and resuspended in sterilized water to give 2×10^10 cfu/ml. Mice were given intragastrically (i.g.) with 0.5 ml (1×10^10 cfu) bacteria once daily at the beginning of the DSS feeding. Animals were sacrificed at the end of 7 days DSS drinking and bacteria feeding. Colonic myeloperoxidase (MPO) was measured as described previously (Guo X, et al. Gastroenterology 117, 884-892 (1999)). In brief, colon tissues were homogenized in an ice-cold […] PBS (pH 6.0) solution with 0.5% hexa-decyl-trimethyl-ammonium bromide. The homogenate was freeze-thawed three times, followed by repeated sonication for 60 seconds each and centrifugation for 20 minutes at 14,000 revolutions per minutes at 4° C. The activity of the supernatant was determined spectrophotometrically at 450 nm. The final value was expressed as enzyme units per mg of protein. Crypt loss is a histological finding in colitis. Therefore, histological analysis of mice administered with formulations per FIG. 16. The crypts were graded on a 4 grade scale as follows: Grade 0: intact crypt; Grade 1: loss of the basal ⅓ of the crypt; Grade 2: loss of the basal ⅔ of the crypt; Grade 3: loss of entire crypt with surface epithelium remaining intact; Grade 4: loss of both the entire crypt and surface epithelium."}, "[2]": {"system": "TMK1 cells"}, "[3]": {"system": "AGS and TMK1 cells", "conditions": "all LL-37 treatment groups", "protocol": "Cell culture and viability assay—The human gastric adenocarcinoma cell line AGS was purchased from American Type Culture Collection (Manassas, Va., USA). The gastric adenocarcinoma cell TMK1 was obtained from Dr. Eiichi Tahara (University of Hiroshima, Hiroshima, Japan). AGS and TMK1 cells were maintained in RPMI 1640 (Invitrogen) containing 10% fetal bovine serum (Invitrogen), 100 U/mL penicillin G, 100 μg/mL streptomycin, and maintained at 37° C., 95% humidity, and 5% carbon dioxide. Cell viability was determined by lactate dehydrogenase release assay (Roche, Indianapolis, Ind., USA)."}, "[4]": {"system": "AGS cells", "conditions": "LL-37 20 μg/ml, 24 h"}, "[5]": {"system": "Smad6, Smad7, p21Waf1/Cip1, p15Ink4a, p27Kip1, BMP ligands", "assay": "RT-PCR / real-time PCR mRNA expression in TMK1 cells", "format": "cell-based, human", "conditions": "MG-132, 4 h (1 μmol/L in FIG. 6)"}, "[6]": {"system": "Smad1/5, Smad2/3, cyclin E2", "assay": "Western blot of Smad/BMP signaling proteins in TMK1 cells", "format": "cell-based, human", "conditions": "MG-132, 4 h (1 μmol/L in FIG. 6)"}},
  "note": "Residues, ends and D or L forms follow the SMILES beside them. *: point of attachment. Cbz = O=C(OCc1ccccc1)*",
  "data": [
    {"smiles": "O=C(O)c1cc(/N=N/c2ccc(S(=O)(=O)Nc3ccccn3)cc2)ccc1O", "note": "[Sulfasalazine, sulfasalazine]", "values": [
      {"measurement": "MPO activity", "setting": "[1]", "value": "did not affect"},
      {"measurement": "mucus level", "setting": "[1]", "value": "did not affect"},
      {"measurement": "number of apoptotic cells in the colonic mucosa", "setting": "[1]", "value": "did not affect"},
      {"measurement": "number of microorganisms in the colon", "setting": "[1]", "value": "did not affect"}
    ]},
    {"smiles": "C=C1/C(=C\\C=C2/CCC[C@]3(C)[C@@H]([C@H](C)CCCC(C)(C)O)CC[C@@H]23)C[C@@H](O)C[C@@H]1O", "note": "[1α,25-dihydroxylvitamin D3]", "values": [
      {"measurement": "TMK1 cell proliferation on induction of endogenous LL-37", "setting": "[2]; 1 μmol/L VD3 for 24 h, read 48 h post-treatment", "value": "inhibited cell proliferation"}
    ]},
    {"smiles": "CC[C@H](C)[C@H](NC(=O)[C@H](CCCCN)NC(=O)[C@H](CCC(=O)O)NC(=O)[C@H](CCCCN)NC(=O)[C@H](CO)NC(=O)[C@H](CCCCN)NC(=O)[C@H](CCCNC(=N)N)NC(=O)[C@H](Cc1ccccc1)NC(=O)[C@H](Cc1ccccc1)NC(=O)[C@H](CC(=O)O)NC(=O)CNC(=O)[C@H](CC(C)C)NC(=O)[C@@H](N)CC(C)C)C(=O)NCC(=O)N[C@@H](CCCCN)C(=O)N[C@@H](CCC(=O)O)C(=O)N[C@@H](Cc1ccccc1)C(=O)N[C@@H](CCCCN)C(=O)N[C@@H](CCCNC(=N)N)C(=O)N[C@H](C(=O)N[C@H](C(=O)N[C@@H](CCC(N)=O)C(=O)N[C@@H](CCCNC(=N)N)C(=O)N[C@H](C(=O)N[C@@H](CCCCN)C(=O)N[C@@H](CC(=O)O)C(=O)N[C@@H](Cc1ccccc1)C(=O)N[C@@H](CC(C)C)C(=O)N[C@@H](CCCNC(=N)N)C(=O)N[C@@H](CC(N)=O)C(=O)N[C@@H](CC(C)C)C(=O)N[C@H](C(=O)N1CCC[C@H]1C(=O)N[C@@H](CCCNC(=N)N)C(=O)N[C@H](C(=O)N[C@@H](CCC(=O)O)C(=O)N[C@@H](CO)C(=O)O)[C@@H](C)O)C(C)C)[C@@H](C)CC)C(C)C)[C@@H](C)CC", "note": "[LL-37]", "values": [
      {"measurement": "cell viability (lactate dehydrogenase release)", "setting": "[3]", "value": "unaffected"},
      {"measurement": "inhibition of TMK1 cell proliferation ([3H]thymidine incorporation)", "setting": "[2]; LL-37 20 μg/ml, 24 h", "value": "about 60%"},
      {"measurement": "inhibition of AGS cell proliferation ([3H]thymidine incorporation)", "setting": "[4]", "value": 10, "unit": "%"}
    ]},
    {"smiles": "CC(C)C[C@@H](C=O)NC(=O)[C@H](CC(C)C)NC(=O)[C@H](CC(C)C)NC(=O)OCc1ccccc1", "note": "[MG-132] (Cbz-Leu-Leu-Leu-aldehyde)", "values": [
      {"measurement": "BMP4 mRNA expression", "setting": "[5]", "value": "dose-dependently increased"},
      {"measurement": "Smad1/5 phosphorylation", "setting": "[6]", "value": "dose-dependently increased"}
    ]}
  ]
}
